Drawing on US20110257013A1, “METHOD FOR CONTROLLING FLOWERING TIME OF PLANT” (SUMITOMO CHEMICAL COMPANY, LIMITED, priority 2008, published 2011), this text covers flowering time for 1 compound.

For this test, the system named is recombinant Arabidopsis thaliana. Put plainly: Flowering induction in recombinant Arabidopsis thaliana. Format: in vivo. Particulars: Arabidopsis with vector (e); 50 μM CuSO4 medium for six hours; observed five days after treatment; compared to non-inducible group. The procedure:
The vector (e) prepared in Example 1 was introduced into Agrobacterium (Agrobacterium tumefaciens strain C58C1). The resulting Agrobacterium was cultured in a LB agar medium (0.5% yeast extract, 1.0% bactotrypton, 0.5% saline, 1% agar) containing 50 mg/L kanamycin, 100 mg/L ampicillin, and 100 mg/L rifampicin, and a drug-resistant colony was selected to obtain recombinant Agrobacterium. Arabidopsis (Arabidopsis thaliana ecotype Columbia) was infected by the obtained recombinant Agrobacterium according to the method described in Model Plant Laboratory Manual (edited by Iwabuchi Masaki et al, 2000, Springer-Verlag Tokyo Co., Ltd., ISBN 4-431-70881-2 C3045) to introduce genes. After T1 seeds collected from the Arabidopsis subjected to gene introduction, the seeds were plated and grown on a modified MS agar medium (MS inorganic salts, B5 vitamin, 1% sucrose, 0.8% agar) containing 20 mg/L of Benlate, 200 mg/L of Claforan, and 25 mg/L kanamycin to select a plant individual resistant to kanamycin. The selected plant individual was transplanted to a pot in which culture soil was previously placed, and grown in an artificial weather chamber to obtain T2 seeds. […]

As to `O=S(=O)([O-])[O-].[Cu+2]` [CuSO4], the flowering time entry is given as “flowering was induced earlier”.
